Source: the supplement of paper PMC11451515

Test system: NOMO1
Experiment: cell viability relative to DMSO control; higher = less cytotoxic
Conditions: 48 h
Method in brief: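 Three leukemia lines were tested: NOMO1 and SEM at 500 cells/well and P12-Ichikawa at 1000 cells/well. Each was adapted for at least four passages in each medium and seeded in 5 μl in 1536-well plates, and library compounds in DMSO were pin-dosed from 47 μM to 0.79 nM in 11 threefold steps. After 48 h at 37°C, CellTiter-Glo One luminescence was read. Viability is a percentage relative to DMSO wells on each plate, with cell-free wells as background.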

[1] = HPLM + 10% dialyzed FBS, 0.000781 µM
[2] = HPLM + 10% dialyzed FBS, 0.00234 µM
[3] = HPLM + 10% dialyzed FBS, 0.00702 µM
[4] = HPLM + 10% dialyzed FBS, 0.0211 µM
[5] = HPLM + 10% dialyzed FBS, 0.0632 µM
[6] = HPLM + 10% dialyzed FBS, 0.19 µM
[7] = HPLM + 10% dialyzed FBS, 0.569 µM
[8] = HPLM + 10% dialyzed FBS, 1.71 µM
[9] = HPLM + 10% dialyzed FBS, 5.12 µM
[10] = HPLM + 10% dialyzed FBS, 15.4 µM
[11] = HPLM + 10% dialyzed FBS, 46.1 µM
[12] = RPMI 5 mM glucose + 10% FBS, 0.000781 µM
[13] = RPMI 5 mM glucose + 10% FBS, 0.00234 µM
[14] = RPMI 5 mM glucose + 10% FBS, 0.00702 µM
[15] = RPMI 5 mM glucose + 10% FBS, 0.0211 µM
[16] = RPMI 5 mM glucose + 10% FBS, 0.0632 µM
[17] = RPMI 5 mM glucose + 10% FBS, 0.19 µM
[18] = RPMI 5 mM glucose + 10% FBS, 0.569 µM
[19] = RPMI 5 mM glucose + 10% FBS, 1.71 µM
[20] = RPMI 5 mM glucose + 10% FBS, 5.12 µM
[21] = RPMI 5 mM glucose + 10% FBS, 15.4 µM
[22] = RPMI 5 mM glucose + 10% FBS, 46.1 µM
[23] = RPMI 5 mM glucose + 10% dialyzed FBS, 0.000781 µM
[24] = RPMI 5 mM glucose + 10% dialyzed FBS, 0.00234 µM
[25] = RPMI 5 mM glucose + 10% dialyzed FBS, 0.00702 µM
[26] = RPMI 5 mM glucose + 10% dialyzed FBS, 0.0211 µM
[27] = RPMI 5 mM glucose + 10% dialyzed FBS, 0.0632 µM
[28] = RPMI 5 mM glucose + 10% dialyzed FBS, 0.19 µM
[29] = RPMI 5 mM glucose + 10% dialyzed FBS, 0.569 µM
[30] = RPMI 5 mM glucose + 10% dialyzed FBS, 1.71 µM
[31] = RPMI 5 mM glucose + 10% dialyzed FBS, 5.12 µM
[32] = RPMI 5 mM glucose + 10% dialyzed FBS, 15.4 µM
[33] = RPMI 5 mM glucose + 10% dialyzed FBS, 46.1 µM

Row | Compound | cell viability [1] [%] | cell viability [2] [%] | cell viability [3] [%] | cell viability [4] [%] | cell viability [5] [%] | cell viability [6] [%] | cell viability [7] [%] | cell viability [8] [%] | cell viability [9] [%] | cell viability [10] [%] | cell viability [11] [%] | cell viability [12] [%] | cell viability [13] [%] | cell viability [14] [%] | cell viability [15] [%] | cell viability [16] [%] | cell viability [17] [%] | cell viability [18] [%] | cell viability [19] [%] | cell viability [20] [%] | cell viability [21] [%] | cell viability [22] [%] | cell viability [23] [%] | cell viability [24] [%] | cell viability [25] [%] | cell viability [26] [%] | cell viability [27] [%] | cell viability [28] [%] | cell viability [29] [%] | cell viability [30] [%] | cell viability [31] [%] | cell viability [32] [%] | cell viability [33] [%]
1 | Cc1coc2c1C(=O)C(=O)c1c-2ccc2c1CCCC2(C)C | 111 | 98.8 | 126 | 118 | 107 | 105 | 92.9 | 95.5 | 82 | 105 | 96.8 | 89.8 | 98.7 | 96.8 | 104 | 116 | 103 | 99.9 | 83.5 | 83.5 | 95.1 | 90.8 | 97.4 | 104 | 95.7 | 98.9 | 103 | 88.8 | 88.4 | 87.5 | 88.4 | 92.5 | 93.1
2 | CCOC(=O)C(C)OC1=CC=CC2=C1\C=C/N(CC(=O)NC3=CC=C4OCCOC4=C3)C2=O (stereo unspecified) | 82.7 | 96.6 | 94.4 | 97.2 | 90.8 | 98.5 | 99.8 | 94.7 | 80.5 | 81.8 | 97.2 | 81.7 | 89.4 | 101 | 96.8 | 91 | 88.8 | 96.7 | 87.8 | 89.4 | 89.5 | 87.5 | 92.3 | 89.8 | 98.2 | 92.2 | 94.6 | 92.3 | 94.9 | 88.8 | 74.6 | 91.9 | 109
3 | N[C@@H]1CONC1=O | 90.7 | 110 | 112 | 101 | 99.4 | 107 | 104 | 110 | 107 | 94.4 | 105 | 84.4 | 88.7 | 95.7 | 91.6 | 94.4 | 90.6 | 94.2 | 99.4 | 94.6 | 90.1 | 88.7 | 87.4 | 98.8 | 112 | 96 | 99.3 | 101 | 107 | 88 | 96.2 | 89.9 | 93.7
4 | C=C[C@H]1CN2CCC1C[C@@H]2C(O)c1ccnc2ccc(OC)cc12 (stereo partly specified) | 111 | 133 | 115 | 107 | 135 | 116 | 128 | 108 | 105 | 125 | 102 | 111 | 116 | 114 | 108 | 127 | 120 | 119 | 119 | 116 | 107 | 104 | 110 | 119 | 116 | 121 | 124 | 110 | 127 | 117 | 106 | 107 | 100
5 | CCCCCNC(=O)N1CCC(CN(Cc2ccc(Cl)cc2)Cc2ccc([N+](=O)[O-])s2)C1 (stereo unspecified) |  |  |  |  |  |  |  |  |  |  |  | 123 | 111 | 104 | 102 | 107 | 120 | 108 | 112 | 110 | 94.5 | 94.8 |  |  |  |  |  |  |  |  |  |  | 
6 | CN1CCCN(CC1)C2=CC=C3C(=O)\C(=C/4SC5=C(C=CC=C5)N4C3=N2)C(=O)NCC6=CN=C(C)C=N6 | 127 | 122 | 108 | 130 | 110 | 96.6 | 125 | 105 | 116 | 115 | 94.2 | 106 | 103 | 99.8 | 94.1 | 94.4 | 107 | 101 | 105 | 97.3 | 92.4 | 86.7 | 103 | 105 | 111 | 91.2 | 119 | 115 | 102 | 98.7 | 82.9 | 89 | 84.8
7 | COc1ccc(C(=O)CC2(O)C(=O)Nc3c(Cl)ccc(Cl)c32)cc1 (stereo unspecified) | 111 | 115 | 128 | 119 | 106 | 119 | 120 | 121 | 77.3 | 34.5 | 26.7 | 95.6 | 108 | 119 | 111 | 109 | 113 | 109 | 123 | 101 | 25.6 | 18.6 | 89.5 | 111 | 110 | 108 | 108 | 120 | 117 | 108 | 99.2 | 26.6 | 22.4
8 | O=C(c1ccccc1)c1ccc2n1CCC2C(=O)O (stereo unspecified) |  |  |  |  |  |  |  |  |  |  |  | 121 | 113 | 125 | 130 | 108 | 122 | 120 | 110 | 111 | 115 | 98.6 | 107 | 115 | 110 | 121 | 125 | 108 | 116 | 115 | 97.4 | 103 | 107
